One data set has as its system Ceriodaphnia dubia. The note with it: in vivo.
Data set [1] is described as follows: Solubility of ILs in base oils, by centrifuging the oil-additive blends. To be noted: centrifuged 13,000 rpm 5 min.

Here are results for twelve compounds from US11760766B2, “Ionic liquids containing quaternary ammonium and phosphonium cations, and their use as environmentally friendly lubricant additives” (UT-Battelle, LLC, priority 2020, dated 2023).

Like-named read-outs stand apart in the source and are kept apart here.

For the compound `CCCCCCN(CCCCCC)CCCCCC.CCCCOP(=O)(O)OCCCC` [[N666H][DBP]], in the data set with Ceriodaphnia dubia, the “Survival rate of Daphnia” value is 10%.

Regarding `CCCCCCCCN(CCCCCCCC)CCCCCCCC.CCCCOP(=O)(O)OCCCC` [[N888H][DBP]], in the data set with Ceriodaphnia dubia, the “Survival rate of Daphnia” value is 0% and the “Total reproductive output (number of neonates) in surviving Daphnia” value (shortened to “Total reproductive output”) is 0. In the case of `CCCCOP(=O)([O-])OCCCC.CCCC[N+](C)(CCCC)CCCC` [[N4441] [DBP]], in the data set on Ceriodaphnia dubia, the “Survival rate of Daphnia” value was more than 70%. Regarding `CCCCOP(=O)(O)OCCCC.CN1CCOCC1` [[NMM] [DBP]], the “Survival rate of Daphnia” value with Ceriodaphnia dubia is 70-90%. Turning to `CCCCOP(=O)(O)OCCCC.CN1CCOCC1` [[NMM][DBP]], the “Survival rate of Daphnia” value with Ceriodaphnia dubia was more than 70%.

On to `CCCCOP(=O)(O)OCCCC.CN1CCCCC1` [[NMPPR] [DBP]], for which, in the data set on Ceriodaphnia dubia, the “Survival rate of Daphnia” value was 70-90%. On to `CCCCOP(=O)(O)OCCCC.CN1CCCCC1` [[NMPPR][DBP]], for which the “Survival rate of Daphnia” value with Ceriodaphnia dubia is more than 70%.

As to `CCCC[P+](CC)(CCCC)CCCC` [[P4442][DEP], Tributyl(ethyl)phosphonium diethyl phosphate], the “IL's solubility in base oil” value in data set [1] (OSP-32) was more than 5% wt. %. Besides, the “IL's solubility in base oil” value in data set [1] (PAG (50-HB-170)) was more than 5% wt. %. Besides, in the data set on Ceriodaphnia dubia (Ceriodaphnia dubia), the “Number of surviving Daphnia” value is 10 and the “Survival rate of Daphnia” value is on record as more than 70%. Besides, the “Mortality / survival of Daphnia, in words” value (“Mortality / survival” below) in the data set on Ceriodaphnia dubia was “did not cause any mortality”. On to “Tetraoctylammonium octadecanoate [[N8888][C17H35COO]]”, for which, in the data set with Ceriodaphnia dubia, the “Mortality / survival” value is listed as “No Daphnia survived for three days” and the “Total reproductive output” value is 0. Take “Tetraoctylphosphonium bis(2-ethylhexyl) phosphate [[P8888][DEHP], reference compound]”: in the data set on Ceriodaphnia dubia, the “Time of exposure after which all Daphnia were killed” value is “one” and the “Total reproductive output” value was determined as 0.

Take “Trioctylammonium di(2-ethylhexyl)phosphate [[N888H][DEHP], reference compound]”: the “Total reproductive output” value in the data set on Ceriodaphnia dubia is recorded as 0. “tributyl(methyl)ammonium dibutyl phosphate [[N4441][DBP]]”: the “Mortality / survival” value with Ceriodaphnia dubia is reported as “did not cause any mortality”.
